According to patent publication US20200385406A1 (priority 2017, published 2020):
Read-outs that look alike come from different tables or passages of the source.

Key:
HIV-1 NL4-3 = experiment: HIV-1 infectivity assay in TZM-bl reporter cells; type: cell-based; details: for inhibition at 3 µM: Human immunodeficiency virus 1, NL43, TZM-bl, read-out: % Inhibition of HIV-1 Infectivity at 3 μM relative to ΔNef
Description: The antiretroviral activity of Nef inhibitor analogs was assessed using the reporter cell line, TZM-bl, which are HeLa cells engineered to express CD4, HIV-1 co-receptors, as well as an HIV-1 LTR-luciferase reporter gene. TZM-bl cells (2.5×10^4) were plated in 96-well plates and allowed to adhere overnight prior to infection. Adherent cells and HIV-1NL4-3 (typically 5,000 pg p24/ml) were then incubated separately with compounds for 3 h and combined in a final volume of 200 μl in each well. Following incubation for 48 h at 37° C., the cells were lysed in 50 μl luciferase cell culture lysis reagent (Promega). Lysates (40 μl) were then transferred to white 96-well plates followed by 50 μl injections of luciferase reagent per well (Promega). Luminescence was then recorded with a delay time of 2 s and an integration period of 10 s. Cytotoxicity of each compound in the absence of HIV-1 was evaluated in TZM-bl cells using the CellTiter-Blue cell viability assay (Promega).

HIV-1 Nef NL4-3 = molecular target: T1, HIV-1 Nef NL4-3 (Human immunodeficiency virus type 1 group M subtype B, UniProt P03406, A33V/T15A/T51N/V11I); experiment: SPR binding to recombinant purified Nef protein
T1 construct: Full-length recombinant Nef proteins (HIV-1 Nef-SF2, HIV-1 Nef NL4-3 and SIV Nef-mac239) were expressed in E. coli; His-6 (N); made in house; host or cells: E. coli
Description: (§1) Interaction of inhibitor analogs with recombinant purified Nef proteins was performed using an SPR-based binding assay on a Reichert 4-channel SPR instrument. Full-length recombinant Nef proteins (HIV-1 Nef-SF2, HIV-1 Nef NL4-3 and SIV Nef-mac239) were expressed in E. coli and purified via N-terminal His-6 tags, ion-exchange chromatography, and gel filtration. Purity and identity of the Nef proteins was confirmed by SDS-PAGE and mass spectrometry. For SPR, Nef proteins were immobilized on carboxymethyl dextran biosensor chips (Reichert) in HBS-EP running buffer (10 mM HEPES, pH 7.4, 150 mM NaCl, 3 mM EDTA, 0.05% v/v Surfactant P20). Test compounds were injected in triplicate over a range of concentrations (typically 0.1 to 30 μM) at a rate of 10 μL/min for one min until equilibrium was reached, followed by dissociation in HBS-EP for 2 min. Kinetic rate constants were calculated from reference-corrected sensorgrams using the TraceDrawer software package (Reichert), and were best fit via 1:1 Langmuir or 2-step induced-fit binding models. Some initial SPR experiments were performed on a BIAcore T100 instrument (GE Healthcare) using four-channel CM5 biosensor chips, and ligand-protein interactions were best-fit using the BIAevaluations software (version 2.0.4).

HIV-1 Nef-SF2 = molecular target: T2, HIV-1 Nef-SF2 (Human immunodeficiency virus type 1 group M subtype B, UniProt P03407); experiment: SPR binding to recombinant purified Nef protein
T2 construct: Full-length recombinant Nef proteins (HIV-1 Nef-SF2, HIV-1 Nef NL4-3 and SIV Nef-mac239) were expressed in E. coli; His-6 (N); made in house; host or cells: E. coli
Description: as §1

SIV Nef-mac239 = SIV Nef-mac239 (Simian immunodeficiency virus, UniProt Q5QGG3); experiment: SPR binding to recombinant purified Nef protein
Description: as §1

[1] = SPR, Reichert 4-Channel instrument, N/I = No Interaction up to 1 μM
[2] = HIV-1 Nef-SF2, KD, Biacore T100 instrument
[3] = Reichert 4-Channel instrument, N/I = No Interaction up to 1 μM
[4] = HIV-1 Nef-SF2, KD, Reichert 4-Channel instrument, N/I = No Interaction up to 1 μM

Compound	inhibition at 3 µM (HIV-1 NL4-3)	Kd (HIV-1 Nef NL4-3)	Kd (HIV-1 Nef-SF2; [2])	Kd (SIV Nef-mac239)	Kd (HIV-1 Nef-SF2; [4])	further results
O=C(Nc1ccc(Cl)cc1)c1cc(-n2sc3ncccc3c2=O)ccc1Cl [Compound 7, 2-chloro-N-(4-chlorophenyl)-5-(3-oxoisothiazolo[5,4-b]pyridin-2(3H)-yl)benzamide]	58%	190 nM	120 nM	280 nM	–	HIV-1 Nef-NL43, KD (HIV-1 Nef NL4-3; [1]): N/I; HIV-1 Nef-SF2, KD (HIV-1 Nef-SF2; [3]): N/I; SIV Nef-mac239, KD (SIV Nef-mac239; [1]): N/I
O=C(c1cc(-n2sc3ncccc3c2=O)ccc1Cl)N1CCCC1 [Compound 12, 2-(4-chloro-3-(pyrrolidine-1-carbonyl)phenyl)isothiazolo[5,4-b]pyridin-3(2H)-one]	100%	960 nM	–	3660 nM	1710 nM	–
CC1(C)CN(C(=O)c2cc(-n3sc4ncccc4c3=O)ccc2Cl)CCO1 [Compound 11, 2-(4-chloro-3-(2,2-dimethylmorpholine-4-carbonyl)phenyl)isothiazolo[5,4-b]pyridin-3(2H)-one]	89%	210 nM	–	1690 nM	220 nM	–
O=C(c1cc(-n2sc3ncccc3c2=O)ccc1Cl)N1CCC(F)(F)CC1 [Compound 16]	60%	56200 nM	–	21100 nM	9390 nM	–
Cc1ccc2c(=O)n(-c3ccc(C)c(S(=O)(=O)N4CCCC4)c3)sc2n1 [Compound 4, 6-methyl-2-(4-methyl-3-(pyrrolidin-1-ylsulfonyl)phenyl)isothiazolo[5,4-b]pyridin-3(2H)-one]	32%	–	260 nM	–	–	–
CC1CN(C(=O)c2cc(-n3sc4ncccc4c3=O)ccc2Cl)CC(C)O1 (stereo not drawn) [Compound 13, 2-(4-chloro-3-(2,6-dimethylmorpholine-4-carbonyl)phenyl)isothiazolo[5,4-b]pyridin-3(2H)-one]	100%	590 nM	–	1410 nM	380 nM	–
O=C(c1cc(-n2sc3ncccc3c2=O)ccc1F)N1CCOCC1 [Compound 1, 2-(4-fluoro-3-(morpholine-4-carbonyl)phenyl)isothiazolo[5,4-b]pyridin-3(2H)-one]	84%	–	1030 nM	–	–	–
Cc1ccc(-n2sc3ncccc3c2=O)cc1S(=O)(=O)N1CCCC1 [Compound 6, 2-(4-methyl-3-(pyrrolidin-1-ylsulfonyl)phenyl)isothiazolo[5,4-b]pyridin-3(2H)-one]	28%	8660 nM	–	1600 nM	2400 nM	–
Cc1ccc2c(=O)n(-c3ccc(F)c(C(=O)N4CCOCC4)c3)sc2n1 [Compound 2, 2-(4-fluoro-3-(morpholine-4-carbonyl)phenyl)-6-methylisothiazolo[5,4-b]pyridin-3(2H)-one]	52%	–	500 nM	–	–	–
O=C(c1cc(-n2sc3ncccc3c2=O)ccc1Cl)N1CCOCC1 [Compound 5, 2-(4-chloro-3-(morpholine-4-carbonyl)phenyl)isothiazolo[5,4-b]pyridin-3(2H)-one]	99%	7330 nM	162 nM	1510 nM	2240 nM	–
O=C(c1cccc(-n2sc3ncccc3c2=O)c1)N1CCOCC1 [Compound 10, 2-(3-(morpholine-4-carbonyl)phenyl)isothiazolo[5,4-b]pyridin-3(2H)-one]	88%	250 nM	–	–	–	–
O=C(c1ccc(-n2sc3ncccc3c2=O)cc1)N1CCCC1 [Compound 9, 2-(4-(pyrrolidine-1-carbonyl)phenyl)isothiazolo[5,4-b]pyridin-3(2H)-one]	38%	40 nM	–	–	–	–
Cc1ccc2c(=O)n(-c3ccc(Cl)c(C(=O)N4CCOCC4)c3)sc2n1 [Compound 3, 2-(4-chloro-3-(morpholine-4-carbonyl)phenyl)-6-methylisothiazolo[5,4-b]pyridin-3(2H)-one]	23%	–	870 nM	–	–	–
O=C(c1cc(-n2sc3ncccc3c2=O)ccc1Cl)N1CCCCC1 [Compound 14, 2-(4-chloro-3-(piperidine-1-carbonyl)phenyl)isothiazolo[5,4-b]pyridin-3(2H)-one]	82%	1760 nM	–	3110 nM	1400 nM	–
2-(2-methyl-5-(morpholine-4-carbonyl)phenyl)isothiazolo[5,4-b]pyridin-3(2H)-one [Compound 15]	–	–	–	–	–	% Inhibition of HIV-1 Infectivity at 3 μM relative to ΔNef (HIV-1 NL4-3; 3 μM, TZM-bl reporter cells infected with HIV-1 NL4-3): 81%; Kd (HIV-1 Nef NL4-3; SPR, Reichert 4-Channel instrument, N/I = No Interaction up to 1 μM, read-out: HIV-1 Nef-NL43, KD): 140 nM; Kd (HIV-1 Nef-SF2; Reichert 4-Channel instrument, N/I = No Interaction up to 1 μM, read-out: HIV-1 Nef-SF2, KD): 390 nM; Kd (SIV Nef-mac239; SPR, Reichert 4-Channel instrument, N/I = No Interaction up to 1 μM, read-out: SIV Nef-mac239, KD): 1280 nM
O=C(c1cc(-n2sc3nc(C(F)(F)F)ccc3c2=O)ccc1Cl)N1CCOCC1 [Compound 8, 2-(4-chloro-3-(morpholine-4-carbonyl)phenyl)-6-(trifluoromethyl)isothiazolo[5,4-b]pyridin-3(2H)-one]	71%	310 nM	110 nM	780 nM	2340 nM	HIV-1 Nef-NL43, KD (HIV-1 Nef NL4-3; [1]): N/I; SIV Nef-mac239, KD (SIV Nef-mac239; [1]): N/I
O=C(c1cc(N2Cc3ncccc3C2=O)ccc1Cl)N1CCOCC1 [Compound 17, 6-(4-chloro-3-(morpholine-4-carbonyl)phenyl)-6,7-dihydro-5H-pyrrolo[3,4-b]pyridin-5-one]	16%	–	–	–	–	HIV-1 Nef-NL43, KD (HIV-1 Nef NL4-3; [1]): N/I; HIV-1 Nef-SF2, KD (HIV-1 Nef-SF2; [3]): N/I; SIV Nef-mac239, KD (SIV Nef-mac239; [1]): N/I
